From patent publication US20030083228A1, “Treatments for female sexual dysfunction and methods for identifying compounds useful for treating female sexual dysfunction” (priority 2001, published 2003)

Tests used:
melanocortin-4 receptors = melanocortin-4 receptors (Homo sapiens, UniProt P32245); assay: [125I]AGRP competition binding assay; details: particularly melanocortin-4 receptors
Description: (§1) The first radioligand binding assay is an [^125I]AGRP competition binding assay. Compounds that attenuate binding of [^125I]AGRP or AGRP would be detected in this assay. It is noted that compounds can attenuate the binding of AGRP to melanocortin 3 and/or 4 receptors by binding to melanocortin 3 and/or 4 receptors or by binding to AGRP itself. The second radioligand binding assay is an assay using radiolabeled melanocortin ligands, for example, [^125I]norleucine D-phenylalanine melanocyte stimulating hormone ([^125I]NDP-MSH). Membranes prepared from cells expressing either melanocortin 3 or 4 receptors are used in the radioligand binding assays. The preparation and use of [^125I]AGRP and [^125I]NDP-MSH is well known in the art. See, for example, Dang et al., Molecular Endocrinology, 13, 148-155 (1999). In addition, the preparation and use of membranes from cells expressing either melanocortin 3 or 4 receptors are also well known in the art. See, Bass, et al., Molecular Pharmacology, 50, 709-715 (1996).
(§2) Specific Activity of [^125I]AGRP is 2200 Ci/mmole. The final concentration of [^125I]AGRP is 100 pM. Therefore, a 2 nM (20×) stock needs to be made in binding buffer. The concentration of [^125I]AGRP varies from 40-60 nM. [^125I]AGRP can be obtained from New England Nuclear, Boston, Mass.
(§3) The competition assay can be run using 96 well plates. […]

melanocortin receptors = assay: [125I]NDP-MSH competition binding assay
Description: as §1
as §2, with “of [^125I]NDP-MSH” for “of [^125I]AGRP”, “is 250” for “is 100”, “a 5” for “a 2”, “nM. [^125I]NDP-MSH” for “nM. [^125I]AGRP”
as §3

MDA-MB-231 cells = assay: Inhibition of in vitro human breast tumor cell growth, ER-negative cell line; assay type: cell-based; details: MDA-MB-231 (ER-negative), 6 days incubation, direct cell counts
Experimental: The in vitro antiproliferative effects of (−)-cis-6-phenyl-5-[4-(2-pyrrolidin-1-yl-ethoxy)-phenyl]-5,6,7,8-tetrahydro-naphthalene-2-ol (PPTN) were tested using two types of human breast cancer cell lines: first, MCF-7 cells, which contain ER as well as progesterone receptors (PgR), and second, MDA-MB-231 cells, which lack ER and PgR, and enable the determination of an effect that is independent of the ER mechanism. The effect of PPTN on the growth of these different cell lines was determined by incubation of the cells with various compound concentrations for 6 days.
The antiproliferative effects were then determined by direct cell counts. PPTN inhibited the growth of the ER-positive cell line MCF-7.

Chain of melanocortin-4 receptors (P32245 whole entry): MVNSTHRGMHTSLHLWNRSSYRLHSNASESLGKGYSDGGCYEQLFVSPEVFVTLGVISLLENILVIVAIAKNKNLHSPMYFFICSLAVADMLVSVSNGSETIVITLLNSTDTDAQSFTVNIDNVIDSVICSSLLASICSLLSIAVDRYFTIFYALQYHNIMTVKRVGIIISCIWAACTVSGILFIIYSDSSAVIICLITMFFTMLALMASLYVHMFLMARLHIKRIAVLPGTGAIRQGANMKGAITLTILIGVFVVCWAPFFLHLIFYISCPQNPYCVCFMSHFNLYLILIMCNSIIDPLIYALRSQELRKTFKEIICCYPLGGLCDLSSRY

Compound | binding of agouti-related protein to melanocortin receptors (melanocortin-4 receptors) | binding of α-melanocyte stimulating hormone to melanocortin receptors (melanocortin receptors) | effect on cell proliferation (MDA-MB-231 cells)
O=[N+]([O-])c1ccc(N2C3c4ccccc4CCN3N(c3ccc([N+](=O)[O-])cc3)C3c4ccccc4CCN32)cc1 (stereo not drawn) [8,16-bis-(4-nitro-phenyl)-5,6,8,8a,13,14,16,16a-octahydro-[1,2,4,5]tetrazino[6,1-a;3,4-a′]diisoquinoline] | attenuates | does not attenuate | 
Oc1ccc2c(c1)CC[C@H](c1ccccc1)[C@@H]2c1ccc(OCCN2CCCC2)cc1 [PPTN, (−)-cis-6-phenyl-5-[4-(2-pyrrolidin-1-yl-ethoxy)-phenyl]-5,6,7,8-tetrahydro-naphthalene-2-ol] |  |  | did not inhibit cell proliferation
